According to the NIST ThermoML archive (doi:10.1021/je700406p):
Numbers after ± are expanded uncertainties.

Assay: wn = mass fraction of the nth substance listed
Conditions: Liquid, Vibrating tube method

CC(C)(N)CO [2-amino-2-methylpropan-1-ol] + O
Conditions | mass density [kg/m3]
313.13 K, 500 kPa, w1 = 0.1997 | 989.5 ± 0.5
313.13 K, 995 kPa, w1 = 0.2821 | 988.9 ± 0.6
313.13 K, 998 kPa, w1 = 0.4002 | 985.4 ± 0.9
313.13 K, 999 kPa, w1 = 0.4976 | 978.1 ± 1.3
313.13 K, 1000 kPa, w1 = 0.1997 | 989.8 ± 0.5
313.13 K, 2000 kPa, w1 = 0.1997 | 990.1 ± 0.5
313.13 K, 2002 kPa, w1 = 0.2821 | 989.2 ± 0.6
313.13 K, 2006 kPa, w1 = 0.4002 | 985.8 ± 0.9
313.13 K, 2014 kPa, w1 = 0.4976 | 978.5 ± 1.3
313.13 K, 2993 kPa, w1 = 0.2821 | 989.6 ± 0.6
313.13 K, 2995 kPa, w1 = 0.4002 | 986.2 ± 0.9
313.13 K, 3000 kPa, w1 = 0.1997 | 990.5 ± 0.5
313.13 K, 3001 kPa, w1 = 0.4976 | 978.9 ± 1.3
313.13 K, 3995 kPa, w1 = 0.4002 | 986.6 ± 0.9
313.13 K, 4000 kPa, w1 = 0.1997 | 990.9 ± 0.5
313.13 K, 4001 kPa, w1 = 0.2821 | 990 ± 0.6
313.13 K, 4001 kPa, w1 = 0.4976 | 979.3 ± 1.3
313.13 K, 4995 kPa, w1 = 0.2821 | 990.4 ± 0.6
313.13 K, 4999 kPa, w1 = 0.4002 | 986.9 ± 0.9
313.13 K, 4999 kPa, w1 = 0.4976 | 979.7 ± 1.3
313.13 K, 5000 kPa, w1 = 0.1997 | 991.2 ± 0.5
313.13 K, 5999 kPa, w1 = 0.4002 | 987.3 ± 0.9
313.13 K, 6000 kPa, w1 = 0.1997 | 991.6 ± 0.5
313.13 K, 6000 kPa, w1 = 0.4976 | 980.2 ± 1.3
313.13 K, 6005 kPa, w1 = 0.2821 | 990.8 ± 0.6
313.13 K, 6987 kPa, w1 = 0.2821 | 991.1 ± 0.6
313.13 K, 6994 kPa, w1 = 0.4002 | 987.7 ± 0.9
313.13 K, 6995 kPa, w1 = 0.4976 | 980.6 ± 1.3
313.13 K, 7000 kPa, w1 = 0.1997 | 992 ± 0.5
313.13 K, 7986 kPa, w1 = 0.4002 | 988.1 ± 0.9
313.13 K, 7991 kPa, w1 = 0.2821 | 991.5 ± 0.6
313.13 K, 8000 kPa, w1 = 0.1997 | 992.4 ± 0.5
313.13 K, 8003 kPa, w1 = 0.4976 | 980.9 ± 1.3
313.13 K, 8992 kPa, w1 = 0.4002 | 988.5 ± 0.9
313.13 K, 8997 kPa, w1 = 0.2821 | 991.9 ± 0.6
313.13 K, 8997 kPa, w1 = 0.4976 | 981.4 ± 1.3
313.13 K, 9007 kPa, w1 = 0.1997 | 992.8 ± 0.5
313.13 K, 9992 kPa, w1 = 0.4002 | 988.9 ± 0.9
313.13 K, 9995 kPa, w1 = 0.2821 | 992.3 ± 0.6
313.13 K, 9999 kPa, w1 = 0.4976 | 981.8 ± 1.3
313.13 K, 10002 kPa, w1 = 0.1997 | 993.2 ± 0.5
313.13 K, 10989 kPa, w1 = 0.4976 | 982.1 ± 1.3
313.13 K, 10990 kPa, w1 = 0.2821 | 992.6 ± 0.6
313.13 K, 10993 kPa, w1 = 0.4002 | 989.2 ± 0.9
313.13 K, 11000 kPa, w1 = 0.1997 | 993.6 ± 0.5
313.13 K, 11991 kPa, w1 = 0.2821 | 993 ± 0.6
313.13 K, 11992 kPa, w1 = 0.4002 | 989.6 ± 0.9
313.13 K, 11996 kPa, w1 = 0.4976 | 982.6 ± 1.3
313.13 K, 12000 kPa, w1 = 0.1997 | 994 ± 0.5
313.13 K, 12982 kPa, w1 = 0.2821 | 993.4 ± 0.6
313.13 K, 13000 kPa, w1 = 0.1997 | 994.4 ± 0.5
313.13 K, 13002 kPa, w1 = 0.4002 | 990 ± 0.9
313.13 K, 13006 kPa, w1 = 0.4976 | 983 ± 1.3
313.13 K, 13991 kPa, w1 = 0.2821 | 993.8 ± 0.6
313.13 K, 13999 kPa, w1 = 0.4002 | 990.4 ± 0.9
313.13 K, 14000 kPa, w1 = 0.1997 | 994.7 ± 0.5
313.13 K, 14001 kPa, w1 = 0.4976 | 983.4 ± 1.3
313.13 K, 14997 kPa, w1 = 0.2821 | 994.2 ± 0.6
313.13 K, 14999 kPa, w1 = 0.4002 | 990.8 ± 0.9
313.13 K, 15001 kPa, w1 = 0.4976 | 983.8 ± 1.3
313.13 K, 15002 kPa, w1 = 0.1997 | 995.1 ± 0.5
313.13 K, 15990 kPa, w1 = 0.2821 | 994.5 ± 0.6
313.13 K, 15992 kPa, w1 = 0.4002 | 991.2 ± 0.9
313.13 K, 15992 kPa, w1 = 0.4976 | 984.2 ± 1.3
313.13 K, 16000 kPa, w1 = 0.1997 | 995.5 ± 0.5
313.13 K, 16989 kPa, w1 = 0.2821 | 994.9 ± 0.6
313.13 K, 16992 kPa, w1 = 0.4976 | 984.6 ± 1.3
313.13 K, 16994 kPa, w1 = 0.4002 | 991.5 ± 0.9
313.13 K, 17001 kPa, w1 = 0.1997 | 995.9 ± 0.5
313.13 K, 17985 kPa, w1 = 0.4976 | 985 ± 1.3
313.13 K, 17988 kPa, w1 = 0.2821 | 995.3 ± 0.6
313.13 K, 17989 kPa, w1 = 0.4002 | 991.9 ± 0.9
313.13 K, 18002 kPa, w1 = 0.1997 | 996.3 ± 0.5
313.13 K, 18987 kPa, w1 = 0.2821 | 995.6 ± 0.6
313.13 K, 18990 kPa, w1 = 0.4002 | 992.3 ± 0.9
313.13 K, 18990 kPa, w1 = 0.4976 | 985.4 ± 1.3
313.13 K, 19000 kPa, w1 = 0.1997 | 996.7 ± 0.5
313.13 K, 19992 kPa, w1 = 0.4002 | 992.7 ± 0.9
313.13 K, 19992 kPa, w1 = 0.4976 | 985.8 ± 1.3
313.13 K, 19996 kPa, w1 = 0.2821 | 996 ± 0.6
313.13 K, 20030 kPa, w1 = 0.1997 | 997.1 ± 0.5
313.13 K, 20495 kPa, w1 = 0.4976 | 986 ± 1.3
313.13 K, 20691 kPa, w1 = 0.4002 | 993 ± 0.9
313.13 K, 20955 kPa, w1 = 0.2821 | 996.4 ± 0.6
313.13 K, 21004 kPa, w1 = 0.1997 | 997.4 ± 0.5
313.13 K, 22004 kPa, w1 = 0.1997 | 997.8 ± 0.5
313.13 K, 23000 kPa, w1 = 0.1997 | 998.2 ± 0.5
313.13 K, 24004 kPa, w1 = 0.1997 | 998.5 ± 0.5
323.08 K, 1026 kPa, w1 = 0.2821 | 982.8 ± 0.6
323.08 K, 2026 kPa, w1 = 0.2821 | 983.2 ± 0.6
323.08 K, 2996 kPa, w1 = 0.2821 | 983.5 ± 0.6
323.08 K, 4009 kPa, w1 = 0.2821 | 983.9 ± 0.6
323.08 K, 5006 kPa, w1 = 0.2821 | 984.3 ± 0.6
323.08 K, 6002 kPa, w1 = 0.2821 | 984.7 ± 0.6
323.08 K, 6993 kPa, w1 = 0.2821 | 985.1 ± 0.6
323.08 K, 7994 kPa, w1 = 0.2821 | 985.5 ± 0.6
323.08 K, 9012 kPa, w1 = 0.2821 | 985.9 ± 0.6
323.08 K, 9998 kPa, w1 = 0.2821 | 986.3 ± 0.6
323.08 K, 11009 kPa, w1 = 0.2821 | 986.6 ± 0.6
323.08 K, 11995 kPa, w1 = 0.2821 | 987 ± 0.6
323.08 K, 12991 kPa, w1 = 0.2821 | 987.4 ± 0.6
323.08 K, 14001 kPa, w1 = 0.2821 | 987.8 ± 0.6
323.08 K, 14989 kPa, w1 = 0.2821 | 988.2 ± 0.6
323.08 K, 15999 kPa, w1 = 0.2821 | 988.5 ± 0.6
323.08 K, 16987 kPa, w1 = 0.2821 | 988.9 ± 0.6
323.08 K, 17980 kPa, w1 = 0.2821 | 989.3 ± 0.6
323.08 K, 18996 kPa, w1 = 0.2821 | 989.7 ± 0.6
323.08 K, 19986 kPa, w1 = 0.2821 | 990.1 ± 0.6
323.08 K, 20987 kPa, w1 = 0.2821 | 990.4 ± 0.6
323.09 K, 1002 kPa, w1 = 0.4976 | 970.1 ± 1.3
323.09 K, 1995 kPa, w1 = 0.4976 | 970.5 ± 1.3
323.09 K, 3001 kPa, w1 = 0.4976 | 971 ± 1.3
323.09 K, 4009 kPa, w1 = 0.4976 | 971.4 ± 1.3
323.09 K, 5001 kPa, w1 = 0.4976 | 971.8 ± 1.3
323.09 K, 5995 kPa, w1 = 0.4976 | 972.2 ± 1.3
323.09 K, 7011 kPa, w1 = 0.4976 | 972.6 ± 1.3
323.09 K, 7990 kPa, w1 = 0.4976 | 973 ± 1.3
323.09 K, 9002 kPa, w1 = 0.4976 | 973.5 ± 1.3
323.09 K, 9974 kPa, w1 = 0.4976 | 973.9 ± 1.3
323.09 K, 10992 kPa, w1 = 0.4976 | 974.3 ± 1.3
323.09 K, 11993 kPa, w1 = 0.4976 | 974.7 ± 1.3
323.09 K, 12991 kPa, w1 = 0.4976 | 975.1 ± 1.3
323.09 K, 13986 kPa, w1 = 0.4976 | 975.6 ± 1.3
323.09 K, 14991 kPa, w1 = 0.4976 | 976 ± 1.3
323.09 K, 15999 kPa, w1 = 0.4976 | 976.4 ± 1.3
323.09 K, 16994 kPa, w1 = 0.4976 | 976.8 ± 1.3
323.09 K, 18003 kPa, w1 = 0.4976 | 977.2 ± 1.3
323.09 K, 18986 kPa, w1 = 0.4976 | 977.6 ± 1.3
